Mass density and speed of sound data for eight compounds are collected here from the NIST ThermoML archive (doi:10.1016/j.jct.2006.08.007).

SMILES strings stand for the structures. Numbers after ± are expanded uncertainties.

Usually mass density stands for the mass of a sample divided by its volume. By speed of sound is commonly meant the propagation velocity of pressure waves in the medium.

The series in a line: xn = mol fraction of the nth substance listed. The following applies: 279.15 K, 101 kPa, Liquid.

In the case of `O` [water] + CN(C)C=O, for the setting “x2 = 0”, the mass density was found to be 999.9 ± 3.1 kg/m3 and the speed of sound is reported as 1430.4 ± 12 m/s.
Consider `CN(C)C=O` [dimethylformamide] + O, for which the mass density runs as follows: (x1 = 0.023) 1000.9 ± 3.2 kg/m3; (x1 = 0.0485) 1002.9 ± 3.2 kg/m3; (x1 = 0.0714) 1005.2 ± 3.3 kg/m3; (x1 = 0.0972) 1007.3 ± 3.4 kg/m3; (x1 = 0.2457) 1009.7 ± 3.9 kg/m3; (x1 = 0.3865) 1002.2 ± 4.5 kg/m3. Further, the mass density (x1 = 0.5924) came to 986.6 ± 5.7 kg/m3 and the mass density (x1 = 0.844) is 970 ± 7.6 kg/m3. For the same compound, the speed of sound is 1511.6 ± 13 m/s (x1 = 0.023); 1578.6 ± 13 m/s (x1 = 0.0485); 1625 ± 13 m/s (x1 = 0.0714); 1664.6 ± 14 m/s (x1 = 0.0972); 1748 ± 14 m/s (x1 = 0.2457); 1714.6 ± 14 m/s (x1 = 0.3865). In addition, the speed of sound is 1646 ± 14 m/s (x1 = 0.5924) and 1564 ± 14 m/s (x1 = 0.844).
For `CC#N` [acetonitrile] + O, the mass density turned out to be 986.6 ± 3.2 kg/m3 (x1 = 0.053); 974.3 ± 3.2 kg/m3 (x1 = 0.091); 955.5 ± 3.3 kg/m3 (x1 = 0.146); 941.9 ± 3.3 kg/m3 (x1 = 0.187); 909.5 ± 3.6 kg/m3 (x1 = 0.296); 888.4 ± 3.8 kg/m3 (x1 = 0.376). In addition, the mass density runs as follows: (x1 = 0.518) 859 ± 4.2 kg/m3; (x1 = 0.692) 831.5 ± 4.9 kg/m3; (x1 = 0.889) 807.2 ± 5.9 kg/m3. Besides, the speed of sound (x1 = 0.053) turned out to be 1540 ± 13 m/s; the speed of sound (x1 = 0.091) was 1549.6 ± 13 m/s; the speed of sound (x1 = 0.146) was 1511.8 ± 13 m/s; the speed of sound (x1 = 0.187) was 1476.2 ± 12 m/s; the speed of sound (x1 = 0.296) came out at 1451 ± 12 m/s; the speed of sound (x1 = 0.376) is recorded as 1425 ± 12 m/s. In addition, the speed of sound was determined as 1387.2 ± 12 m/s (x1 = 0.518), 1352 ± 12 m/s (x1 = 0.692) and 1321 ± 12 m/s (x1 = 0.889).
In the case of `C1COCCO1` [1,4-dioxane] + O, the mass density is given as 1008.9 ± 3.2 kg/m3 (x1 = 0.018); 1021 ± 3.3 kg/m3 (x1 = 0.048); 1031.1 ± 3.4 kg/m3 (x1 = 0.077); 1035.1 ± 3.5 kg/m3 (x1 = 0.096); 1051.2 ± 4.1 kg/m3 (x1 = 0.24); 1052.8 ± 4.9 kg/m3 (x1 = 0.387). Further, for the setting “x1 = 0.595”, the mass density came to 1051.7 ± 6.3 kg/m3. Moreover, the speed of sound turned out to be 1490 ± 12 m/s (x1 = 0.018); 1544.4 ± 13 m/s (x1 = 0.048); 1580 ± 13 m/s (x1 = 0.077); 1590.4 ± 13 m/s (x1 = 0.096); 1587.6 ± 13 m/s (x1 = 0.24); 1531.6 ± 13 m/s (x1 = 0.387). In addition, for the setting “x1 = 0.595”, the speed of sound came out at 1479.4 ± 13 m/s.
`O` [water] + C1COCCO1: for the setting “x2 = 0”, the mass density worked out at 999.9 ± 3.1 kg/m3 and the speed of sound stood at 1430.4 ± 12 m/s.
Taken in the same sequence, the figures for `O` [water] + C1CCOC1 were 999.9 ± 5.8 kg/m3 and 1433 ± 12 m/s.
Regarding `C1CCOC1` [tetrahydrofuran] + O, the mass density runs as follows: (x1 = 0.046) 996.6 ± 5.9 kg/m3; (x1 = 0.086) 994.4 ± 5.9 kg/m3; (x1 = 0.19) 979 ± 6.2 kg/m3; (x1 = 0.33) 970.5 ± 6.7 kg/m3; (x1 = 0.54) 934 ± 7.4 kg/m3; (x1 = 0.74) 919.2 ± 8.6 kg/m3. Besides, the speed of sound (x1 = 0.046) is 1571.5 ± 13 m/s; the speed of sound (x1 = 0.086) came out at 1610.7 ± 13 m/s; the speed of sound (x1 = 0.19) amounted to 1554 ± 13 m/s; the speed of sound (x1 = 0.33) was 1474.2 ± 12 m/s; the speed of sound (x1 = 0.54) is on record as 1420.7 ± 12 m/s; the speed of sound (x1 = 0.74) was determined as 1396.7 ± 12 m/s.
For `O` [water] + CC#N, where the note is “x2 = 0”, the mass density came out at 999.9 ± 3.1 kg/m3 and the speed of sound was determined as 1430.4 ± 12 m/s.
